Results as given in US8227240B2, “Systems for screening pharmaceutical chemicals” (The Washington University, priority 2001, dated 2012).
pIC50: −log10 of the molar value.

Experiments:
Assay type in all cases: cell-based
[1] = system: chicken embryo fibroblasts (CEF's) tissue model; assay: Ring system: isometric force and dynamic stiffness of fibroblast populated matrices (FPM); details: for contractile force produced in response to serum activation: cytochalasin D 2 μM
Method: Chicken embryo fibroblasts (CEF's) isolated from 11-day chicken embryos (Spafas Inc., Preston, Conn.) were maintained in Dulbecco's modified Eagle's medium (DMEM) supplemented with 10% fetal calf serum (FCS), penicillin at 50 units/ml, and streptomycin at 50 microgram/milliliter. The CEF's used to make tissue models were passaged once or twice from primary cultures. Monomeric collagen solubilized in 0.02 M acetic acid (Upstate Biotechnology Inc., Lake Placid, N.Y.) was neutralized at 4° C. with 0.1 N NaOH and mixed with concentrated DMEM stock to yield a final normal DMEM concentration. The fibroblasts suspended by trypsin (FIG. 1a) were mixed with the collagen solution (FIG. 1b), the cell suspension was poured into Teflon casting wells (FIG. 1c), and the wells were incubated at 37° C. with 5% CO2 (FIG. 1d). The collagen polymerized within 15-30 min and fibroblasts were captured within the hydrated collagen gel. The collagen gel formed a ring (3 mm thick, 3 cm diameter) between the inner wall of the cylindrical well and the central mandrel. While in culture the cells compressed this ring, reducing its volume about 10-fold (thickness 200-300 μm). The ring could then be removed from the mandrel (FIG. 1e and FIG. 1f) and mounted on the measuring instrument (FIG. 1g) as described below.
Mechanical measurements were carried out using a ring system. After two days of incubation (serum starvation for the final 12-16 hours), the mandrel was removed from the casting well and the tissue model-ring was removed gently from the mandrel. As shown in FIG. 1 the tissue model-ring was looped over the triangular hook connected to an isometric force transducer (Model 52-9545, Harvard Apparatus, South Natick, Mass.) by a fine, flexible gold chain. The ring was also looped over a horizontal bar connected to a sliding element moveable vertically and linearly by a stepper motor (P/N 1-19-3400 24V DC 1.8° step size, Haward Industry, St. Louis, Mo.) controlled by a micro-stepping driver (IM483 Intelligent Motion Systems) to measure stress and dynamic modulus of the sample. The micro-stepping driver was controlled by a personal computer with software which enabled the stepper motor to achieve smooth motion. An analog-to-digital signal converter (CIO-DAS1602/16, Computer Boards, Inc., Mansfield, Mass.) attached to the computer translated the voltage signal from the isometric force transducer to a digital signal for recording on a data recorder. The stepper motor controlled the stretching of the tissue. Force exerted by or on the tissue was transmitted to the force transducer by the gold chain.
The tissue sample was submerged in 50 ml Hepes-buffered DMEM (pH 7.4) in a thermo-regulated organ bath (Harvard Apparatus, South Natick, Mass.) maintained at 37° C. The two horizontal bars over which the ring was looped were initially set to hold the ring at its original contour length (corresponding to the circumference of the mandrel).
Typically, for stiffness measurements, the tissue model is subjected to a sequence of stretch cycles. In each cycle the tissue model is slowly stretched from 0 to 20% over 30 minutes and the tissue model is then returned at the same rate to its original length by actuation of the stepper motor. The resulting increase in contractile force during the first stretch is substantially larger than the contractile force in subsequent stretches (FIG. 2a). For each stretch after the first stretch there is a further small decrease in maximum contractile force, but the decrease becomes negligible after sufficient pre-stretching. The tissue models produced contractile force in response to the activation of fibroblasts by serum. This contractile force was abolished by disrupting the actin cytoskeleton with cytochalasin D (2 μM) (FIG. 2b).
The amplitude of the force response divided by the stretching amplitude corresponded to the dynamic stiffness of the sample subjected to a preselected sinusoidal length change. […]

[2] = system: actin cytoskeletons in mono-layer cell cultures; assay: Confocal microscopy of actin cytoskeletons stained with Rhodamine phalloidin; details: CD 2 nM
[3] = system: ring tissue model; assay: Contractile force developed by ring sample during tissue development (matrix remodeling and compression); details: Cytochalasin D 2 μM
Method: The contractile force developed by the ring sample during matrix remodeling and compression can be measured by connecting the ring to the force measuring apparatus as described above within about 1-2 hours after collagen gelation. The cells begin to exert a force on the matrix after this time. Then the increase of force during tissue development (remodeling and compression) is observed over time.
Maximum force is typically reached within 15 to 20 hours. This process was also disrupted by several inhibitors as illustrated in FIGS. 18(b)-(d).

C=C1[C@@H](C)[C@H]2[C@H](Cc3ccccc3)NC(=O)[C@]23[C@H](OC(C)=O)/C=C/[C@@](C)(O)C(=O)[C@@H](C)C/C=C/[C@H]3[C@@H]1O [CD, cytochalasin D]
concentration range over which tension and stiffness decrease [1]: almost three decades
lowest concentration at which force and dynamic stiffness were significantly diminished [1]: 2 nM
dynamic stiffness ([1]; CD 2 μM): nearly reached its minimum value
isometric force ([1]; CD 2 μM): reduced almost to zero
contractile force produced in response to serum activation ([1]; listed as Cytochalasin D): abolition of active contractility
contractile force produced in response to serum activation ([1]; listed as cytochalasin D): abolished
effect on viscosity of the tissues (phase angle δ) ([1]; data not shown): relatively minor effect
pIC50 ([1]; two day-old tissue models, serum starved 16 hours, serial additions, read-out: concentration needed to reduce the force and dynamic stiffness by 50%): ~6.60
effect on actin cytoskeletons by confocal microscopy [2]: no effect was observed
development of force during ring tissue development [3]: completely abolished
